Data reported in patent US4245099A, “2-Acyl-6-aminomethylphenol derivatives” (Ono Pharmaceutical Co., Ltd., priority 1978, dated 1981).
Structures can show the parent of a compound that is named as a salt.

How the values were obtained:
[1] = system: Carrageenan-Induced Edema in Rat Paws; assay: Carrageenan-induced edema in rat paws (anti-inflammatory effect); format: in vivo; details: 3 h, oral, carrageenan injected one hour after dosing, swelling measured at third hour of carrageenan injection, read-out: % Inhibition of Paw Edema
Description: For example, in a laboratory experiment, one hour after oral administration with these compounds, the rats were subcutaneously injected with 0.1 ml of 1% carrageenan suspension on the plantar surface of the right hind paw. The swelling was measured at the third hour of carrageenan injection. Anti-inflammatory effect of the compounds was determined as percentage inhibition of the swelling, taking the swelling in the control groups as 100%.

[2] = system: acetic acid stretching in mice; assay: Acetic acid stretching method (analgesic effect in mice); format: in vivo; details: male mice, oral, 0.6% acetic acid i.p. 30 minutes later, counted for 10 minutes from 5 minutes after injection
Description: Male mice were given orally with these compounds and 30 minutes later injected intraperitoneally with 0.1 ml/10 g of 0.6% acetic acid. The number of stretching was countered for 10 minutes from 5 minutes after injection of acetic acid. The value was expressed in the percentage of control.

[3] = system: ulcer in rats; assay: Sign of ulcer upon oral administration in rats; format: in vivo, rat; details: 200 mg/kg
[4] = system: pain threshold of inflamed foot (beer yeast) in rats; assay: Randall-Selitto method (analgesic effect in rat); format: in vivo; details: male rats, oral, 2 hours after 20% beer yeast into subplantar area
Description: Male rats were administered orally with 2-propionyl-4-tert-butyl-6-aminomethylphenol hydrochloride 2 hours after injection of 0.1 ml of 20% suspension beer yeast into subplantar area of one hind paw. Pain threshold determination was made on the normal and inflamed foot, using apparatus similar to that described by Randall-Selitto. Pain threshold change was expressed as percentage of control.

SMILES	inhibition in vivo at 30 mg/kg [1] [%]	also measured
CC(=O)c1c(O)c(CN)cc2c1CCCC2 [1-Acetyl-3-aminomethyl-5,6,7,8-tetrahydro-2-naphthol hydrochloride]	55.3	–
CC(=O)c1cc2c(c(CN)c1O)CCCC2C (centres unmarked) [1-Aminomethyl-3-acetyl-5-methyl-5,6,7,8-tetrahydro-2-naphthol hydrochloride]	66.3	–
CCC(=O)c1c(O)c(CN)cc2c1CCCC2 [1-Propionyl-3-aminomethyl-5,6,7,8-tetrahydro-2-naphthol hydrochloride]	37.4	–
CSCCC(=O)c1cc(C(C)(C)C)cc(CN)c1O [2-(3-Methylthiopropionyl)-4-tert-butyl-6-aminomethylphenol hydrochloride]	29.3	–
CC(C)(C)c1cc(CN)c(O)c(C(=O)c2ccc(Br)cc2)c1 [2-(4-Bromobenzoyl)-4-tert-butyl-6-aminomethylphenol hydrochloride]	35	–
CC(=O)c1cc(C(C)(C)C)cc(CN)c1O [2-Acetyl-4-tert-butyl-6-aminomethylphenol hydrochloride]	46.7	–
CC(C)(C)c1cc(CN)c(O)c(C(=O)c2ccccc2)c1 [2-Benzoyl-4-tert-butyl-6-aminomethylphenol hydrochloride]	47.6	–
CCCC(=O)c1cc(C(C)(C)C)cc(CN)c1O [2-Butyryl-4-tert-butyl-6-aminomethylphenol hydrochloride]	34.1	–
CC(C)(C)c1cc(CN)c(O)c(C(=O)CCl)c1 [2-Chloroacetyl-4-tert-butyl-6-aminomethylphenol hydrochloride]	59.2	–
CC(C)(C)c1cc(CN)c(O)c(C(=O)C2CCCCC2)c1 [2-Cyclohexylcarbonyl-4-tert-butyl-6-aminomethylphenol hydrochloride]	27.1	–
CC(C)C(=O)c1cc(C(C)(C)C)cc(CN)c1O.Cl [2-Isobutyryl-4-tert-butyl-6-aminomethylphenol hydrochloride]	55.5	% Inhibition (acetic acid stretching) ([2]; 50 mg/kg): 49.7%
CC(C)(C)c1cc(CN)c(O)c(C(=O)Cc2ccccc2)c1 [2-Phenylacetyl-4-tert-butyl-6-aminomethylphenolhydrochloride]	20.3	–
CCC(=O)c1cc(C(C)(C)C)cc(CN)c1O.Cl [2-Propionyl-4-tert-butyl-6-aminomethylphenol hydrochloride]	72.8	% Inhibition (acetic acid stretching) ([2]; 10 mg/kg): 35.3%; % Inhibition (acetic acid stretching) ([2]; 20 mg/kg): 61.3%; % Inhibition (acetic acid stretching) ([2]; 50 mg/kg): 85.3%; sign of ulcer [3]: did not show any sign of ulcer; % Inhibition (Randall-Selitto pain threshold change) ([4]; 50 mg/kg): 70%; % Inhibition (Randall-Selitto pain threshold change) ([4]; 100 mg/kg): 113%
